According to patent EP4631938A1, “NITROGEN-CONTAINING HETEROCYCLE WITH SEROTONIN RECEPTOR-BINDING ACTIVITY AND CARBOCYCLIC DERIVATIVE” (Shionogi & Co., Ltd, priority 2022, dated 2024):
Read-outs that look alike come from different tables or passages of the source.

Key:
[1] = molecular target: T1, human recombinant 5-HT2A receptor (Homo sapiens, UniProt P28223); assay: Test Example 1-2: 5-HT2A receptor binding inhibition test ([3H]-Ketanserin; non-specific ligand Ketanserin)
T1 construct: expressed in transfected cells; host or cells: Jump-In HEK cells (membrane preparation)
How it was run: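 Ki values were derived from dose-response inhibition of [3H]-ketanserin binding; nonspecific binding was set with 500 µmol/L ketanserin, and Kd was set for each membrane lot from Scatchard saturation plots. Incubation lasted 1.5 h at room temperature (25 °C). Bound radioligand was harvested on Tris-HCl (pH 7.4)-presoaked filters and counted.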

[2] = molecular target: T2, human recombinant 5-HT2C receptor (Homo sapiens, UniProt P28335); assay: Test Example 2-2: 5-HT2C receptor binding inhibition test ([3H]-Mesulergine; non-specific ligand Ketanserin); details: non-specific binding with 500 µmol/L Ketanserin, 37°C, 2 hours
T2 construct: expressed in transfected cells; host or cells: Jump-In HEK cells (membrane preparation)
T2 sequence (P28335 33-458): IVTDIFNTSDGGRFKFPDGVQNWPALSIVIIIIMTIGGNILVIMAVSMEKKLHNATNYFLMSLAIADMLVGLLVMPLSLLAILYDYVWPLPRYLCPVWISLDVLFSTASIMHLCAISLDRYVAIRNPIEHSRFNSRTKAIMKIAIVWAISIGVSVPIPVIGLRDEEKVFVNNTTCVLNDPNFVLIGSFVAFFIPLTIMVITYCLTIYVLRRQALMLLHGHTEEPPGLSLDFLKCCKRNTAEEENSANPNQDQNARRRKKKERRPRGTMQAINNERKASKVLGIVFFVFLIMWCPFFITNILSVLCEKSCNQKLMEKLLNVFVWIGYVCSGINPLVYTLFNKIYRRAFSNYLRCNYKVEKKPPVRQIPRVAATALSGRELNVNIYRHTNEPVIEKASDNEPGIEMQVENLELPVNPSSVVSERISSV
Protocol: The Kd value is calculated when the lot of the cell membrane is changed. 1 mmol/L non-specific binding calculating compound dissolved in DMSO or DMSO is previously dispensed to the microplate by 0.5 µL, and the cell membrane is diluted with an Assay buffer. The radioactive ligand solution is diluted step by step, and counts are checked with a liquid scintillator. The Assay buffer containing diluted cell membranes is dispensed by 50 µL/well into the microplate. The radioactive ligand solution is then dispensed by 50 µL/well into the microplate and the plate is sealed. The microplate is allowed to stand at 37°C for 2 hours. During this time, 50 mmol/L Tris-HCl (pH 7.4) is dispensed by 50 µL/well into the UniFilter plate and allowed to stand at 4°C for 1 hour or longer. Thereafter, filtration is performed with a Cell Harvester (PerkinElmer). The radioactive ligand solution is dispensed by 10 µL/well into empty wells of the UniFilter plate. After drying the UniFilter plate at room temperature, MicroScinti20 is dispensed by 50 µL/well into the UniFilter plate, and the plate is sealed. UniFilter plate is allowed to stand at room temperature overnight. The radioactivity of [^3H]-Mesulergine bound to the 5-HT2C receptor is measured using Microbeta2 (PerkinElmer) at a measurement time of 1 min/well. The Saturation curve is drawn from the measured value, and the Kd value is calculated from the slope of the Scatchard Plot.
A compound solution dissolved in DMSO is dispensed to a microplate by 0.5 µL, and a cell membrane and a hot ligand are each diluted with an Assay buffer. The Assay buffer containing diluted cell membrane is then dispensed by 50 µL/well into the microplate. The radioactive ligand solution is then dispensed by 50 µL/well into the microplate and the plate is sealed. The microplate is then allowed to stand at 37°C for 2 hours. During this time, 50 mmol/L Tris-HCl (pH 7.4) is dispensed by 50 µL/well into the UniFilter plate and allowed to stand at 4°C for 1 hour or longer. Thereafter, filtration is performed with a Cell Harvester (PerkinElmer). After drying the UniFilter plate at room temperature, MicroScinti20 is dispensed by 50 µL/well into the UniFilter plate, and the plate is sealed. UniFilter plate is allowed to stand at room temperature overnight. The radioactivity of [^3H]-Mesulergine bound to the 5-HT2C receptor is measured using Microbeta2 (PerkinElmer) at a measurement time of 1 min/well. Non-specific binding is calculated from the radioactivity of [^3H]-Mesulergine in the presence of 500 µmol/L Ketanserin of unlabeled ligand, and total binding is calculated from the radioactivity of [^3H]-Mesulergine in the absence of the compound of the present invention (Vehicle). Finally, the Ki value is calculated from the dose-response curve.
(The binding activity of the compound according to the present invention is calculated from the following binding inhibition rate (%).) Inhibition rate (%) = [1−(c−a)/(b−a)] × 100 [formula] • a; average cpm of non-specific binding • b; average cpm of total binding • c; cpm in the presence of the test compound
The compounds of the present invention were tested essentially as described above.

[3] = [3H]-Ketanserin, non-specific binding with 500 µmol/L Ketanserin, room temperature (25°C), 1.5 hours, read-out: h 5-HT2A Ki

T1 sequence (P28223 whole entry): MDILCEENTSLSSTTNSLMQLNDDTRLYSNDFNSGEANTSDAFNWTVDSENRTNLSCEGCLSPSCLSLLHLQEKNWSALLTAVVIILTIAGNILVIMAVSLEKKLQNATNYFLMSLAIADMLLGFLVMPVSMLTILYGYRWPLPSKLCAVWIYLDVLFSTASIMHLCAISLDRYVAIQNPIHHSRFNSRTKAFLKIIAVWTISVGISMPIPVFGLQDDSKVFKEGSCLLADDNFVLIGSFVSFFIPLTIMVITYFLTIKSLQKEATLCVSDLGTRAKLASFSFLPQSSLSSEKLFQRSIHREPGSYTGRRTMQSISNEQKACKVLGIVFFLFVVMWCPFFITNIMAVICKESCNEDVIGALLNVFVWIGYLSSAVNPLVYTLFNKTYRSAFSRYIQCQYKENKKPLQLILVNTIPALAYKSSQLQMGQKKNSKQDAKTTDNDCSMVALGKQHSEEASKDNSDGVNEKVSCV

| Compound | Ki [1, 3] | Ki [2] | Ki [1] |
| --- | --- | --- | --- |
| Cn1ncc(Br)c1-c1cc(Nc2ncc(C(F)(F)F)cc2F)c(F)cc1OCCO [Compound I-150] | 0.279 nM | 0.239 nM |  |
| Cn1ncc(Br)c1-c1cc(Nc2nc3ccc(F)cc3s2)ccc1OCCO [Compound I-070] | 0.302 nM | 0.213 nM |  |
| Cn1cnc(Br)c1-c1cc(Nc2ncc(C(F)(F)F)cc2F)ccc1OCCO [Compound I-027] | 0.292 nM | 0.266 nM |  |
| Cc1ncnc(C)c1-c1cc(Nc2ccc(C(F)(F)F)cn2)ccc1OCCO [Compound I-100] | 0.27 nM | 6.82 nM |  |
| Cn1ncc(Br)c1-c1cc(Nc2ncc(F)cc2F)ccc1OCCO [Compound I-016] | 0.284 nM | 0.699 nM |  |
| Cc1nc(C)c(-c2cc(Nc3ncc(C(F)(F)F)cc3F)ccc2OCCO)c(C)n1 [Compound I-097] | 0.509 nM | 1.34 nM |  |
| Cn1ncc(Br)c1-c1cc(Nc2cc(C(F)(F)F)ccn2)ccc1OCCO [Compound I-047] | 0.207 nM | 4.26 nM |  |
| Cn1ncc(Br)c1-c1cc(Nc2ccc(Cl)cn2)ccc1OCCO [Compound I-090] | 0.203 nM | 0.575 nM |  |
| CC(C)c1cnn(C)c1-c1cc(Nc2ncc(C(F)(F)F)cc2F)ccc1OCCO [I-056] |  | 1.04 nM | 1.3 nM |
| Cc1nc(C)c(-c2cc(Nc3ccc(Cl)cn3)ccc2OCCO)c(C)n1 [Compound I-123] | 0.81 nM | 5.59 nM |  |
| Cn1ncc(C#N)c1-c1cc(Nc2ccc(Cl)cn2)ccc1OCCO [Compound I-102] | 0.265 nM | 7.3 nM |  |
| OCCOc1ccc(Nc2ncc(C(F)(F)F)cc2F)cc1-c1ccncc1Cl [Compound I-011] | 0.133 nM | 4.55 nM |  |
| Cn1ncc(Br)c1-c1cc(Nc2ncccc2F)ccc1OCCO [Compound I-045] | 0.235 nM | 3.77 nM |  |
| Cc1cnc(Nc2ccc(OCCO)c(-c3c(Br)cnn3C)c2)s1 [Compound I-028] | 0.209 nM | 4.96 nM |  |
| Cn1nccc1-c1cc(Nc2ncc(C(F)(F)F)cc2F)ncc1OCCO [Compound I-059] | 0.45 nM | 30 nM |  |
| Cc1ncccc1-c1cc(Nc2ncc(C(F)(F)F)cc2F)ccc1OCCO [Compound I-013] | 0.332 nM | 7.21 nM |  |
| Cc1cncc(C)c1-c1cc(Nc2ncc(C(F)(F)F)cc2F)ccc1OCCO [Compound I-030] | 0.31 nM | 0.881 nM |  |
| Cn1ncc(Br)c1-c1cc(Nc2ccc(C3CCC3)cn2)ccc1OCCO [Compound I-093] | 0.283 nM | 0.325 nM |  |
| Cn1ncc(Cl)c1-c1cc(Nc2ncc(Cl)cn2)ccc1OCCO [Compound I-138] | 0.264 nM | 4.76 nM |  |
| Cn1ncc(Br)c1-c1cc(Nc2ncc(Cl)cn2)c(F)cc1OCCO [Compound I-149] | 0.365 nM | 1.35 nM |  |
| Cn1ncc(Br)c1-c1cc(Nc2ccc(OC(F)(F)F)cc2)ccc1OCCO [Compound I-061] | 0.254 nM | 1.31 nM |  |
| Cc1cnn(C)c1-c1cc(Nc2ncc(C(F)(F)F)cc2F)c(Oc2ccn(C)n2)cc1OCCO [Compound I-035] | 2.54 nM | 2.35 nM |  |
| Cc1cnc(Nc2ccc(OCCO)c(-c3c(Br)cnn3C)c2)c(F)c1 [Compound I-049] | 0.168 nM | 0.641 nM |  |
| Cn1ncc(Cl)c1-c1cc(Nc2ncc(C(F)(F)F)cc2F)cnc1OCCO [Compound I-142] | 0.269 nM | 0.195 nM |  |
| Cn1ncc(Br)c1-c1cc(Nc2nc(C3CC3)ns2)ccc1OCCO [Compound I-104] | 0.39 nM | 6.13 nM |  |

| Compound | Ki [1, 3] | Ki [2] | Ki [1] |
| --- | --- | --- | --- |
| Cn1ncc(Br)c1-c1cc(Nc2ccc(C(C)(F)F)cn2)ccc1OCCO [Compound I-080] | 0.445 nM | 2.74 nM |  |
| Cc1ncnc(C)c1-c1cc(Nc2ccc(Cl)cn2)ccc1OCCO [Compound I-103] | 0.351 nM | 9.13 nM |  |
| Cc1cccc(C)c1-c1cc(Nc2ncc(C(F)(F)F)cc2F)ccc1OCCO [Compound I-034] | 0.77 nM | 3.57 nM |  |
| Cn1ncc(Br)c1-c1cc(Nc2nc3cc(Cl)ccc3[nH]2)ccc1OCCO [Compound I-078] | 0.263 nM | 1.1 nM |  |
| Cn1ncc(C#N)c1-c1cc(Nc2ccc(OC(F)(F)F)cn2)ccc1OCCO [Compound I-121] | 0.279 nM | 1.3 nM |  |
| Cn1ncc(C#N)c1-c1cc(Nc2ncc(C(F)(F)F)cc2F)cnc1OCCO [Compound I-087] | 0.241 nM | 6.37 nM |  |
| Cn1ncc(Br)c1-c1cc(Nc2ncc(C(F)(F)F)cn2)cnc1OCCO [Compound I-131] | 0.163 nM | 1.25 nM |  |
| Cn1ncc(Br)c1-c1cc(Nc2ncc(C#N)cc2F)ccc1OCCO [Compound I-044] | 0.626 nM | 15.1 nM |  |
| C=Cc1cnn(C)c1-c1cc(Nc2ncc(C(F)(F)F)cc2F)ccc1OCCO [Compound I-053] | 0.291 nM | 1.25 nM |  |
| Cc1nc(C)c(-c2cc(Nc3ccc(C(F)(F)F)cn3)c(F)cc2OCCO)c(C)n1 [Compound I-158] | 0.907 nM | 3.5 nM |  |
| Cc1cnn(C)c1-c1cc(Nc2ncc(C(F)(F)F)cc2F)cnc1OCCO [Compound I-083] | 0.289 nM | 2.97 nM |  |
| Cc1ncnc(C)c1-c1cc(Nc2ncc(Cl)cc2F)ccc1OCCO [Compound I-057] | 0.386 nM | 5.3 nM |  |
| Cc1cnn(C)c1-c1cc(Nc2ncc(Cl)cc2F)cnc1OCCO [Compound I-141] | 0.296 nM | 4.07 nM |  |
| Cn1ncc(Cl)c1-c1cc(Nc2ncc(F)cc2F)ccc1OCCO [Compound I-137] | 0.205 nM | 0.772 nM |  |
| Cn1ncc(Br)c1-c1cc(Nc2ncc(F)cc2F)c(F)cc1OCCO [Compound I-154] | 0.332 nM | 1.1 nM |  |
| Cn1cnc(Br)c1-c1cc(Nc2ncc(F)cc2F)ccc1OCCO [Compound I-032] | 0.734 nM | 8.32 nM |  |
| Cn1ncc(Br)c1-c1nc(Nc2ccc(C(F)(F)F)cn2)ccc1OCCO [Compound I-073] |  | 0.936 nM | 0.184 nM |
| Cn1ncc(Br)c1-c1cc(Nc2ccc(C3CC3)cn2)ccc1OCCO [Compound I-048] | 0.163 nM | 0.313 nM |  |
| Cn1cnc(Br)c1-c1cc(Nc2ncc(Cl)cc2F)ccc1OCCO [Compound I-096] | 0.341 nM | 1.66 nM |  |
| Cn1ncc(Br)c1-c1cc(Nc2ncc(Cl)cc2F)ncc1OCCO [Compound I-155] | 0.318 nM | 1.04 nM |  |
| Cc1cc(OCCO)c(-c2c(C#N)cnn2C)cc1Nc1ncc(C(F)(F)F)cc1F [Compound I-107] | 1.67 nM | 99.3 nM |  |
| Cc1ncnc(C)c1-c1cc(Nc2ncc(C(F)(F)F)cc2F)ccc1OCCO [Compound I-050] | 0.395 nM | 1.69 nM |  |
| C#Cc1cnn(C)c1-c1cc(Nc2ncc(C(F)(F)F)cc2F)ccc1OCCO [I-058] |  | 0.456 nM | 0.418 nM |
| Cc1ncnc(C)c1-c1cc(Nc2ccc(OC(F)(F)F)cn2)ccc1OCCO [Compound I-124] | 0.259 nM | 2.32 nM |  |
| Cn1ncc(Br)c1-c1cc(Nc2nc3ccc(Cl)cc3s2)ccc1OCCO [I-064] |  | 0.18 nM | 0.327 nM |
